Literature values as cited in patent publication US9434994B2, “Methods for prediction of clinical outcome to epidermal growth factor receptor inhibitors by non-small cell lung cancer patients” (The Regents of the University of Colorado, a body corporate, priority 2004, dated 2016).

Tested on: chemotherapy resistant NSCLC patients
Conditions: single agent; cited from earlier work

COc1cc2ncnc(Nc3ccc(F)c(Cl)c3)c2cc1OCCCN1CCOCC1 [gefitinib]
response rates: about 10%
